# Measured values from patent US12129223B2, “Lipids for use in lipid nanoparticle formulations” (Acuitas Therapeutics, Inc., priority 2021, dated 2024).
# Legend:
# [1] = Determination of pKa of formulated lipids (TNS fluorescence assay in lipid nanoparticles); assay type: physicochemical; settings: lipid nanoparticles (compound/DSPC/cholesterol/PEG-lipid), lipid formulated in LNP (lipid/DSPC/cholesterol/PEG-lipid), pH at half-maximal intensity
# Procedure: As described elsewhere, the pKa of formulated lipids is correlated with the effectiveness of LNPs for delivery of nucleic acids (see Jayaraman et al, Angewandte Chemie, International Edition (2012), 51(34), 8529-8533; Semple et al, Nature Biotechnology 28, 172-176 (2010)). In some embodiments, the preferred range of pKa is ˜5 to ˜7. The pKa of each lipid is determined in lipid nanoparticles using an assay based on fluorescence of 2-(p-toluidino)-6-napthalene sulfonic acid (TNS). Lipid nanoparticles comprising compound of structure (I)/DSPC/cholesterol/PEG-lipid (50/10/38.5/1.5 or 47.5:10:40.7:1.8 mol %) in PBS at a concentration of 0.4 mM total lipid are prepared using the in-line process as described in Example 1. TNS is prepared as a 100 μM stock solution in distilled water. Vesicles are diluted to 24 μM lipid in 2 mL of buffered solutions containing 10 mM HEPES, 10 mM MES, 10 mM ammonium acetate, and 130 mM NaCl, where the pH ranged from 2.5 to 11. An aliquot of the TNS solution is added to give a final concentration of 1 μM and following vortex mixing fluorescence intensity is measured at room temperature in a SLM Aminco Series 2 Luminescence Spectrophotometer using excitation and emission wavelengths of 321 nm and 445 nm. A sigmoidal best fit analysis is applied to the fluorescence data and the pKa is measured as the pH giving rise to half-maximal fluorescence intensity.
# human IgG in mouse serum = assay: Immunoglobulin G (IgG) mRNA in vivo evaluation using lipid nanoparticle compositions; design: species or system mice; settings: LNP with IgG mRNA, tail vein injection, serum 24 hours after administration; for Serum IgG @ 0.3 mg/kg: 0.3 mg mRNA/kg; for Serum IgG @ 1.0 mg/kg: 1.0 mg mRNA/kg
# Procedure: (§1) A lipid of structure (I), DSPC, cholesterol and PEG-lipid are solubilized in ethanol at a molar ratio of 50:10:38.5:1.5 or 47.5:10:40.7:1.8. Lipid nanoparticles (LNP) are prepared at a total lipid to mRNA weight ratio of approximately 10:1 to 40:1. Briefly, the mRNA is diluted to 0.2 mg/mL in 10 to 50 mM citrate buffer, pH 4 or 10 to 25 mM acetate buffer, pH 4. Syringe pumps are used to mix the ethanolic lipid solution with the mRNA aqueous solution at a ratio of about 1:5 to 1:3 (vol/vol) with total flow rates above 15 mL/min. The ethanol is then removed and the external buffer replaced with PBS by dialysis. Finally, the lipid nanoparticles are filtered through a 0.2 µm pore sterile filter.
# Studies are performed in 6-8 week old CD-1/ICR mice (Envigo) according to guidelines established by an institutional animal care committee (ACC) and the Canadian Council on Animal Care (CCAC). Varying doses of mRNA-lipid nanoparticle are systemically administered by tail vein injection and animals euthanized at a specific time point (e.g., 24 hours) post-administration. The whole blood is collected, and the serum subsequentially separated by centrifuging the tubes of the whole blood at 2000×g for 10 minutes at 4° C. and stored at −80° C. until use for analysis.
# For immunoglobulin G (IgG) ELISA (Life Diagnostics Human IgG ELISA kit), the serum samples are diluted at 100 to 15000 folds with 1×diluent solution. 100 μL of diluted serum is dispensed into anti-human IgG coated 96-well plate in duplicate alongside human IgG standards and incubated in a plate shaker at 150 rpm at 25° C. for 45 minutes. The wells are washed 5 times with 1× wash solution using a plate washer (400 μL/well). 100 μL of HRP conjugate is added into each well and incubated in a plate shaker at the same condition above. The wells are washed 5 times again with 1× wash solution using a plate washer (400 μL/well). 100 μL of TMB reagent is added into each well and incubated in a plate shaker at the same condition above. The reaction is stopped by adding 100 μL of Stop solution to each well. The absorbance is read at 450 nm (A450) with a microplate reader. The amount of human IgG in mouse serum is determined by plotting A450 values for the assay standard against human IgG concentration.
# (§2) Representative compounds of the disclosure shown in Table 2 were formulated using the following molar ratio: 50% cationic lipid/10% distearoylphosphatidylcholine (DSPC)/38.5% Cholesterol/1.5% PEG lipid 2-[2-(ω-methoxy(polyethyleneglycol2000)ethoxy]-N,N-ditetradecyl acetamide) or 47.5% cationic lipid/10% DSPC/40.7% Cholesterol/1.8% PEG lipid. Relative activity was determined by measuring luciferase expression in the liver 4 hours following administration via tail vein injection as described in Example 1 or by measuring the amount of human IgG in mouse serum as described in example 2. The activity was compared at a dose of 1.0 or 0.5 or 0.3 mg mRNA/kg and expressed as ng luciferase/g liver measured 4 hours after administration, as described in Example 1 or as μg IgG/mL serum measured 24 hours after administration, as described in Example 2. Compound numbers in Table 2 refer to the compound numbers of Table 1.
# [2] = system: luciferase expression in the liver; assay: Luciferase mRNA in vivo evaluation using lipid nanoparticle compositions; design: species or system mice; settings: LNP with FLuc mRNA, tail vein injection, ng luciferase/g liver 4 hours after administration; for Liver Luc @ 0.3 mg/kg: 0.3 mg mRNA/kg; for Liver Luc @ 1.0 mg/kg: 1.0 mg mRNA/kg
# Procedure: as §1
# Studies are performed in 6-8 week old female C57BL/6 mice (Charles River) 8-10 week old CD-1 (Harlan) mice (Charles River) according to guidelines established by an institutional animal care committee (ACC) and the Canadian Council on Animal Care (CCAC). Varying doses of mRNA-lipid nanoparticle are systemically administered by tail vein injection and animals euthanized at a specific time point (e.g., 4 hours) post-administration. Liver and spleen are collected in pre-weighed tubes, weights determined, immediately snap frozen in liquid nitrogen and stored at −80° C. until processing for analysis.
# For liver, approximately 50 mg is dissected for analyses in a 2 mL FastPrep tubes (MP Biomedicals, Solon OH). ¼″ ceramic sphere (MP Biomedicals) is added to each tube and 500 μL of Glo Lysis Buffer—GLB (Promega, Madison WI) equilibrated to room temperature is added to liver tissue. Liver tissues are homogenized with the FastPrep24 instrument (MP Biomedicals) at 2×6.0 m/s for 15 seconds. Homogenate is incubated at room temperature for 5 minutes prior to a 1:4 dilution in GLB and assessed using SteadyGlo Luciferase assay system (Promega). Specifically, 50 μL of diluted tissue homogenate is reacted with 50 μL of SteadyGlo substrate, shaken for 10 seconds followed by 5 minute incubation and then quantitated using a CentroXS^3 LB 960 luminometer (Berthold Technologies, Germany). The amount of protein assayed is determined by using the BCA protein assay kit (Pierce, Rockford, IL). Relative luminescence units (RLU) are then normalized to total μg protein assayed. To convert RLU to ng luciferase a standard curve is generated with QuantiLum Recombinant Luciferase (Promega).
# The FLuc mRNA (L-6107) from Trilink Biotechnologies will express a luciferase protein, originally isolated from the firefly, Photinus pyralis. FLuc is commonly used in mammalian cell culture to measure both gene expression and cell viability. It emits bioluminescence in the presence of the substrate, luciferin. This capped and polyadenylated mRNA is fully substituted with 5-methylcytidine and pseudouridine.
# as §2
pKa [1],Compound,Serum IgG @ 0.3 mg/kg (human IgG in mouse serum),Serum IgG @ 1.0 mg/kg (human IgG in mouse serum),Liver Luc @ 0.3 mg/kg [2],Liver Luc @ 1.0 mg/kg [2]
6.32,"CCCCCCCCCCN(CCCCCCCCN(C)CCCCCCCC(=O)N(CCCCCCCCCC)CCCCCCCCCC)C(=O)CCCCCCCCC [Compound I-73, N-decyl-N-(8-((8-(didecylamino)-8 oxooctyl)(methyl)amino)octyl)decanamide]",27.72 ± 6.23 µg/mL,213.39 ± 18.85 µg/mL,,
6.48,"CCCCCCCCCCN(CCCCCCCCCC)C(=O)CCCCCCN(C)CCCCCCC(=O)N(CCCCCCCCCC)CCCCCCCCCC [Compound I-75, 7,7′-(methylazanediyl)bis(N,N-didecylheptanamide)]",84.87 ± 12.19 µg/mL,343.06 ± 42.39 µg/mL,,
6.71,CCCCCCCCCCN(CCCCCCCCCC)C(=O)CCCCCCCN(CCCCCCCC(=O)N(CCCCCCCCCC)CCCCCCCCCC)CCN(C)C [Compound I-77],17.45 ± 2.05 µg/mL,,,
6.81,"CCCCCCCCCCN(CCCCCCCCCC)C(=O)CCCN(CCCCCO)CCCC(=O)N(CCCCCCCCCC)CCCCCCCCCC [Compound I-85, 4,4′-((5-hydroxypentyl)azanediyl)bis(N,N-didecylbutanamide)]",10.74 ± 2.79 µg/mL,,,
6.53,"CCCCCCCCCCN(CCCCCCCCN(CCCCCO)CCCCCCCC(=O)N(CCCCCCCCCC)CCCCCCCCCC)C(=O)CCCCCCCCC [Compound I-74, N-decyl-N-(8-((8-(didecylamino)-8-oxooctyl)(5-hydroxypentyl)amino)octyl)decanamide]",50.16 ± 6.58 µg/mL,292.44 ± 40.55 µg/mL,,
6.73,"CCCCCCCCCCN(CCCCCCCCCC)C(=O)CCCCCCCN(CCCCCCCC(=O)N(CCCCCCCCCC)CCCCCCCCCC)CCCNc1c(NC)c(=O)c1=O [Compound I-50, 8,8′-((3-((2-(methylamino)-3,4-dioxocyclobut-1-en-1-yl)amino)propyl)azanediyl)bis(N,N-didecyloctanamide)]",1.32 ± 0.28 µg/mL,11.05 ± 2.19 µg/mL,,
6.22,"CCCCCCCCCCN(CCCCCCCCCC)C(=O)CCCCCCCN(C)CCCCCCCC(=O)N(CCCCCCCC)CCCCCCCC [Compound I-55, N,N-didecyl-8-((8-(dioctylamino)-8-oxooctyl)(methyl)amino)octanamide]",,,8244 ± 1599 ng/g,30106 ± 13756 ng/g
5.91,"CCCCCCCCCCN(CCCCCCCCCC)C(=O)CCCCCCCN(CCCCCCCC(=O)N(CCCCCCCCCC)CCCCCCCCCC)CCOCCOC [Compound I-46, 8,8′-((2-(2-methoxyethoxy)ethyl)azanediyl)bis(N,N-didecyloctanamide)]",,,10201 ± 2440 ng/g,52937 ± 8101 ng/g

# Second part, the compound before the results:
Compound,pKa [1],Serum IgG @ 0.3 mg/kg (human IgG in mouse serum),Serum IgG @ 1.0 mg/kg (human IgG in mouse serum),Liver Luc @ 0.3 mg/kg [2],Liver Luc @ 1.0 mg/kg [2]
"CCCCCCCCCCCCN(CCCCCCCCCCCC)C(=O)CCCCCCCN(C)CCCCCCCC(=O)N(CCCCCCCCCCCC)CCCCCCCCCCCC [Compound I-40, 8,8′-(methylazanediyl)bis(N,N-didodecyloctanamide)]",6.17,16.72 ± 5.38 µg/mL,101.96 ± 4.12 µg/mL,,
"CCCCCCCCCCCCN(CCCCCCCCCCCC)C(=O)CCCCCN(CCCCCCO)CCCCCC(=O)N(CCCCCCCCCCCC)CCCCCCCCCCCC [Compound I-38, 6,6′-((6-hydroxyhexyl)azanediyl)bis(N,N-didodecylhexanamide)]",6.48,4.71 ± 0.46 µg/mL,45.87 ± 2.33 µg/mL,,
"CCCCCCCCCCN(CCCCCCCCCC)C(=O)CCCCCCCN(CCCCCCCO)CCCCCCCC(=O)N(CCCCCCCCCC)CCCCCCCCCC [Compound I-45, 8,8′-((7-hydroxyheptyl)azanediyl)bis(N,N-didecyloctanamide)]",5.96,3.03 ± 0.66 µg/mL,13.00 ± 2.05 µg/mL,,
"CCCCCCCCCCN(CCCCCCCCCC)C(=O)CCCCCCCN(CCCCCCCC(=O)N(CCCCCCCCCC)CCCCCCCCCC)CCCC(C)(C)CO [Compound I-43, 8,8′-((5-hydroxy-4,4-dimethylpentyl)azanediyl)bis(N,N-didecyloctanamide)]",6.02,2.45 ± 0.66 µg/mL,9.97 ± 1.17 µg/mL,,
"CCCCCCCCCCN(CCCCCCCCCC)C(=O)CCCCCCCN(CCCCCCCC(=O)N(CCCCCCCCCC)CCCCCCCCCC)CCOCCO [Compound I-42, 8,8′-((2-(2-hydroxyethoxy)ethyl)azanediyl)bis(N,N-didecyloctanamide)]",6.66,3.13 ± 0.27 µg/mL,12.42 ± 3.81 µg/mL,,
"CCCCCCCCCCN(CCCCCCCCCC)C(=O)CCCCCCCCCN(CCCCO)CCCCCCCCCC(=O)N(CCCCCCCCCC)CCCCCCCCCC [Compound I-25, 10,10′-((4-hydroxybutyl)azanediyl)bis(N,N-didecyldecanamide)]",6.28,,,20276 ± 3044 ng/g,64656 ± 24090 ng/g
